Consider two compounds from publication PMC8622623, “Histamine H3 Receptor Ligands—KSK-59 and KSK-73—Reduce Body Weight Gain in a Rat Model of Excessive Eating” (Pharmaceuticals, 2021).

Series [1] deals with non-obese rats fed palatable diet. Kind of series: Plasma lipids, hormones, corticosterone, CRP and IL-6 at end of chronic experiment. Format: in vivo, female Wistar rats. The settings on record: for plasma triglyceride levels: day 31, palatable feed + treatment, compared to rats fed standard feed. The procedure: On the 31st day of the experiment, 20 min after i.p. administration of heparin (5000 units/rat) and thiopental (70 mg/kg b.w.), blood was collected from the left carotid artery and then centrifuged at 600× g (15 min, 4 °C) in order to obtain the plasma. To determine total cholesterol, HDL-cholesterol, LDL-cholesterol or triglyceride levels in plasma, standard enzymatic and spectrophotometric tests (Biomaxima S.A. Lublin, Poland) were used. The ELISA Kit (Cayman Chemical, USA) assay was used to determine corticosterone levels in plasma. To determine IL-6, ghrelin, adiponectin, leptin and C-reactive protein levels in plasma, standard ELISA Kit (Bioassay Technology Laboratory, Shanghai, China) was used.

The target of the next series is T1, H3 histamine receptor (Homo sapiens, UniProt Q9Y5N1).
T1 construct: host or cells: recombinant frozen ready-to-use cells
Kind of series: Aequoscreen intrinsic activity assay (antagonist dose-response). Format: cell-based. The procedure: Intrinsic activity studies were performed by two methods, Aequoscreen and Lance cAMP assays according to the manufacturer of the ready to use cells with stable expression of the H3 histamine receptor (Perkin Elmer, Waltham, MA, USA).
The Aequoscreen technology uses the recombinant cell lines with stable co-expression of apoaequorin and a GPCR as a system to detect activation of the receptor, following addition of an agonist, via the measurement of light emission. For measurement cells (frozen, ready to use) were thawed and resuspended in 10 mL of an assay buffer containing 5 μM of coelenterazine h. Then cells suspension was placed in a 10 mL Falcon tube, fixed onto a rotating wheel and incubated overnight at RT° in the dark. Cells were diluted with assay buffer to 5000 cells/20 µL. Agonistic ligands 2× (50 μL/well), diluted in assay buffer, were prepared in 1/2 area white polystyrene plates, and the 50 μL of cell suspension was dispensed on the ligands using the injector. The light emission was recorded for 20 s. Cells were incubated with antagonist for 15 min at RT°. Then 50 µL of agonist (3 × EC80 final concentration) was injected onto the mixture of cells and antagonist and the light emission was recorded for 20 s.

Series [2] can be described thus: Pharmacokinetics after single i.p. administration. The format is in vivo. The settings on record: single i.p. 10 mg/kg; for AUC(0-inf) / Cmax / Tmax / CL/F / MRT / k el / Vd/F / half-life: ip; for AUC(0-inf): heading: AUC0-inf; for CL/F: read-out: CLS/F (clearance) (converted); for MRT: read-out: MRT (mean residence time); for k el: read-out: λz (terminal elimination rate constant) (converted); for Vd/F / half-life: rat, plasma; for Vd/F: n = 3, read-out: Vz/F (volume of distribution); for half-life: n = 3, read-out: t0.5λz (half-life) (converted). The method, then: Six rats divided into two experimental groups were used in pharmacokinetic experiments. Three days before the experiment, rats’ jugular vein was cannulated allowing for the multiple blood sampling from the single animal. Investigated compounds suspended in 1% Tween 80 were administered i.p. at the single dose of 10 mg/kg. Blood samples (approximately 300 µL) were collected to Eppendorf tubes containing heparin at 5, 15, 30, 60, 120, 240 and 360 min after dosing. Plasma was harvested by centrifuging at 5000× g for 10 min and stored at −30 °C until bioanalysis.
Plasma concentrations of KSK-59 or KSK-73 were measured by liquid chromatography tandem mass spectrometry (LC-MS/MS) method. Samples (50 μL) were deproteinized at the ratio of 1:3 (v/v) with acetonitrile containing an internal standard (IS—pentoxifiline), briefly vortexed and then centrifuged for 10 min at the speed of 8000× g (Eppendorf miniSpin centrifuge). The supernatant was transferred into the autosampler vials and a sample volume of 10 μL was injected into LC-MS/MS system.
Chromatographic separation was carried out on XBridge™ C18 (3 × 50 mm, 5 µm, Waters, Dublin, Ireland) analytical column using the HPLC system Agilent 1100 (Agilent Technologies, Waldbronn, Germany). The mobile phase containing 0.1% formic acid in acetonitrile and in water was run at 0.3 mL/min in the gradient mode. Mass spectrometric detection was performed on an Applied Biosystems MDS Sciex (Concord, ON, Canada) API 2000 triple quadrupole mass spectrometer. Electrospray ionization (ESI) in the positive ion mode was used for ion production. The tandem mass spectrometer was operated at unit resolution in the selected reaction monitoring mode (SRM), monitoring the transitions of the protonated molecular ions m/z 382 to 107 for KSK-59, m/z 410 to 107 for KSK-73 and m/z 279 to 181 for IS. Data acquisition and processing were accomplished using the Applied Biosystems Analyst version 1.6 software. The calibration curves were constructed by plotting the ratio of the peak area of the studied compound to IS versus drug concentration and generated by weighted (1/x·x) linear regression analysis. The validated quantitation ranges were from 1 to 2000 ng/mL. Calculated accuracy and precision were within the ranges proposed by guidelines for bioanalytical methods validation (FDA, EMA). No significant matrix effect was observed and there were no stability related problems during the routine analysis of the samples.
Pharmacokinetic parameters were calculated by employing a non-compartmental approach, using Monolix version 2019R1 (Antony, France: Lixoft SAS, 2019) software. The area under the mean plasma concentration versus time curve extrapolated to infinity (AUC0-inf) was estimated using the log/linear trapezoidal rule. AUMC0-inf was estimated by calculation of total area under the first-moment curve by combining trapezoid calculation of AUMC0-t and extrapolated area. The mean residence time (MRT) was calculated from AUMC0-inf/AUC0-inf. The terminal rate constant (λz) was calculated by log-linear regression of the drug concentration data in the terminal phase and the terminal half-life (t1/2) were calculated as 0.693/λz. The clearance (CL/F) was estimated from the administered dose divided by AUC0-inf. The apparent volume of distribution during terminal phase (Vz/F) was calculated from (CL/F)/λz.

Series [3] relates to non-obese rats fed palatable diet. Kind of series: Spontaneous activity (RFID TraffiCage). Format: in vivo, female Wistar rats. The settings on record: KSK compounds 10 mg/kg, vs control fed palatable diet; for spontaneous activity after chronic administration: 27th day, i.p.; for spontaneous activity after first administration: day 1, i.p. The method, then:
The spontaneous activity of rats was measured on the 1st and 27th day of the treatment with a special RFID-system—TraffiCage (TSE-Systems, Germany). The animals were subcutaneously implanted with transmitter identification (RFID), which enabled the presence and time spent in different areas of the cage to be counted and then the data were grouped in a special computer program.

Another series relates to female Wistar rats. The series is described as follows: Visceral illness via kaolin intake (pica behavior). Format: in vivo. The settings on record: for kaolin clay intake: single i.p. 10 mg/kg b.w.; for kaolin clay intake / water intake (pica model): vs control group that received i.p. CuSO4; for kaolin intake: KSK compounds 10 mg/kg or bupropion/naltrexone, vs vehicle control and CuSO4 control. The procedure: The method was based on the works by Takeda et al. and Yamamoto et al. with minor modification. The experiment lasted for five days. In addition to free access to feed, animals had also free access to a white kaolin. For the first few days, the animals were accustomed to the presence of kaolin in their cages. […] Moreover, animals were weighed before the compounds administration and 24 h after.

Structures are written as SMILES.

Usually IC50 stands for the midpoint of a concentration-inhibition curve. Lower therefore signals greater potency in that assay. The term AUC(0-inf) denotes the area under the concentration-time curve extrapolated to infinity. The Cmax is the maximum level reached in the sampled fluid or tissue. By Tmax is commonly meant the time at which the peak concentration occurs. The MRT is the average time that molecules of a dose stay in the body. One may read the half-life as the time needed for the level to fall by half in the phase considered.

T1 sequence (Q9Y5N1 whole entry): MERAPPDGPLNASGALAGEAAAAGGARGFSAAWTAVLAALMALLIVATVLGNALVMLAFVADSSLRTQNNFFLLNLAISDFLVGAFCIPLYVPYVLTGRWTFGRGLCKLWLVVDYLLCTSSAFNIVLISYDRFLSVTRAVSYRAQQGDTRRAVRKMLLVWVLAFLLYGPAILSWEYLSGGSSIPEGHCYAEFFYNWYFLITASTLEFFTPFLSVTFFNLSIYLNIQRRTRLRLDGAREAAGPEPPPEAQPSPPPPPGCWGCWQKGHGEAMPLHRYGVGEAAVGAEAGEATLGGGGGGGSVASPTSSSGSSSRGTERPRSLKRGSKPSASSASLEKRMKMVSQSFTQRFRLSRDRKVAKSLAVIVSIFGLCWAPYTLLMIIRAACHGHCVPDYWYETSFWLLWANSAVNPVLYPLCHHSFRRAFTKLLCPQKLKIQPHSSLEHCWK

For the compound `CC(=O)c1ccc(OCCCCCCN2CCN(c3ccncc3)CC2)cc1.O=C(O)C(=O)O` [KSK-59, 1-(4-((6-(4-(pyridin-4-yl)piperazin-1-yl)hexyl)oxy)phenyl)ethan-1-one oxalate], the plasma triglyceride levels entry in series [1] is on record as “statistically significantly higher”. In addition, the plasma adiponectin level result in series [1] (day 31, vs control rats fed palatable feed) is given as “Significantly lower level of adiponectin”. The compound also displayed an IC50 against H3 histamine receptor of 3.31 ± 3.2 nM. The area under the curve AUC(0-inf) in series [2] (10 mg/kg, rat plasma, n = 3) came out at 538 ng·h/mL. Also, in series [2] (rat plasma, n = 3), the peak level (Cmax) was 96 ng/mL, the Tmax worked out at 4.98 min, the CL/F was 1120 mL/min/kg and the mean residence time MRT was found to be 2.04 h. Also, the k el in series [2] (rat plasma, n = 3) was 0.000122 s⁻¹. Besides, in series [2] (rat plasma), the “time at which Cmax was reached (first sampling point)” value was 5 min. Moreover, in series [2] (rat plasma, n = 3, 10 mg/kg), the “Vz/F (volume of distribution)” value is recorded as 152.22 L/kg and the “t0.5λz (half-life)” value is reported as 1.58 h. In series [2] (10 mg/kg), the Vd/F amounted to 152 L/kg and the half-life was 96 min. Moreover, in series [3], the “spontaneous activity after chronic administration” value is “did not affect spontaneous activity” and the “spontaneous activity after first administration” value is on record as “did not affect spontaneous activity”. The kaolin clay intake entry in the series with female Wistar rats is on record as “consumed significantly less kaolin clay”. Moreover, in the series with female Wistar rats (single i.p., 24 h), the “water intake (pica model)” value is recorded as “lower water intake” and the kaolin intake result is given as “did not consume more kaolin”.

With `CC(=O)c1ccc(OCCCCCCCCN2CCN(c3ccncc3)CC2)cc1.O=C(O)C(=O)O` [KSK-73, 1-(4-((8-(4-(pyridin-4-yl)piperazin-1-yl)octyl)oxy)phenyl)ethan-1-one oxalate], the plasma triglyceride levels entry in series [1] is “comparable to the ones observed in rats from the control group fed standard feed”. The IC50 against H3 histamine receptor was determined as 20.6 ± 4.5 nM. Also, the AUC(0-inf) in series [2] (10 mg/kg, rat plasma, n = 3) was found to be 888 ng·h/mL. In series [2] (rat plasma, n = 3), the Cmax was found to be 216 ng/mL, the time to peak (Tmax) came to 4.98 min, the CL/F was 675 mL/min/kg and the mean residence time (MRT) was 4.2 h. In series [2] (rat plasma, n = 3), the k el is 5.28e-05 s⁻¹. Moreover, the “time at which Cmax was reached (first sampling point)” value in series [2] (rat plasma) worked out at 5 min. Also, in series [2] (10 mg/kg), the Vd/F came to 216 L/kg and the half-life was 222 min. In addition, in series [3], the “spontaneous activity after chronic administration” value was “no such changes were observed” and the “spontaneous activity after first administration” value is on record as “statistically significant decrease in spontaneous activity”. Also, the kaolin clay intake entry with female Wistar rats is listed as “consumed significantly less kaolin clay”. Further, in the series on female Wistar rats (single i.p., 24 h), the “water intake (pica model)” value is reported as “lower water intake” and the kaolin intake entry is listed as “did not consume more kaolin”. Also, the “calorie intake (pica model)” value in the series on female Wistar rats (single i.p., 24 h, vs vehicle control) was “consumed fewer calories”.
